Reference: PubChem BioAssay AID2060618 (Molecular Pharmacology Branch, DTP, NCI, 2025)

Tested on: 454973-116-R2-J3-PDC spheroids, percent test/control viability
Assay: Anticancer human tumor 454973-116-R2-J3-PDC patient-derived pancreatic carcinoma cell line growth inhibition [CLK]
Conditions: spheroids with HUVEC and MSC; for IC50: curve of first compound; for viability, T/C: stronger effect = lower value
From the text: A high-throughput screen of multi-cell type tumor spheroids was designed to identify active combinations of […] and targeted small molecules. Complex spheroids include a stromal component modeled by human endothelial cells (HUVEC) and fibroblasts modeled by human mesenchymal stem cells (MSCs). The concentration ranges selected for each drug and investigational agent were based upon clinically achievable concentrations if the clinical Cmax of the agent was known.
Compounds. The drugs and investigational agents: cirtuvivint (SM08502; NSC835563), CC-671 (NSC850746), vemurafenib (NSC761431), tapotoclax (NSC804041), sotorasib (NSC818433), adagrasib (NSC831453), MRTX-1133 (NSC836407), BAY2416964 (NSC825713), copanlisib (NSC816437), inavolisib (NSC800729), abemaciclib (NSC768073), osimertinib (NSC779217), entinostat (NSC756642), eltanexor (KPT-8602, NSC794443), venetoclax (NSC766270), ceralasertib (NSC777638), bortezomib (NSC756655), olaparib (NSC753686), talazoparib (NSC767125), alisertib (NSC759677), peposertib (NSC802822), gemcitabine (NSC613327), 5-fluorouracil (NSC19893), SN-38 (NSC673596), oxaliplatin (NSC266046), paclitaxel (NSC125973), and doxorubicin (NSC123127), were obtained from the National Cancer Institute (NCI) Developmental Therapeutics Program Chemical Repository. The FDA-approved anticancer drug set is available from the Developmental Therapeutics Program at https://dtp.cancer.gov/organization/dscb/obtaining/available plates.htm. […] The stock solutions were prepared in dimethyl sulfoxide (DMSO, Sigma-Aldrich, St. Louis, MO, cat. D2650), except for the platinum complexes which were prepared in saline (Quality Biological, Gaithersburg, MD, cat. 114-055-101), at 800-fold the tested concentration and stored at -70 degrees C prior to their use. All drugs and investigational agents were tested over a range starting from a high concentration at or near the clinical Cmax and decreasing in half-log increments. If the clinical Cmax for an agent had not been determined, the highest concentration tested was 10 microM.
Cell Culture. All cells were maintained in an incubator at 37 degrees C and 5% CO2 with 95% humidity. The PDC lines were cultured according to standard operating procedures established by the NCI PDMR. Briefly, all PDCs were thawed and cultured in Matrigel-coated flasks prepared with a working solution of 1X Ham's F-12 nutrient mix, without supplementation (Invitrogen, Waltham, MA, cat. 11765054), 100 U/mL penicillin-streptomycin (Invitrogen, cat. 15140122), and 2.5% Matrigel (Corning Inc., Corning, NY, cat. 354248) for the first three passages. The 947758-054-R-J2-PDC line was cultured in 6B/Colon 1A media, which includes advanced DMEM/F-12 (Thermo Fisher Scientific, cat. 12634028), 10 mM HEPES (Thermo Fisher Scientific, cat. 15630080), 1X GlutaMAX supplement (Thermo Fisher Scientific, cat. 35050061), 0.1 mg/mL primocin (InvivoGen, cat. ant-pm-2), 10% defined fetal bovine serum, heat inactivated (HyClone Laboratories Inc., cat. SH30070.03HI), 1.25 mM N-Acetyl-L-cysteine (Sigma-Aldrich, cat. A9165), 10 mM nicotinamide (Sigma-Aldrich, cat. N0636), 1X B-27 supplement (Thermo Fisher Scientific, cat. 17504044), 1X N-2 supplement (Thermo Fisher Scientific, cat. 17502048), and 10 microM Y-27632 dihydrochloride (Tocris Bioscience, cat. 1254). The 876862-298-R-J1-PDC was cultured in 6E media, which includes all 6B/Colon 1A media components plus 50% L-WRN conditioned media (ATCC, cat. CRL-3276), 50 ng/mL recombinant human EGF recombinant protein (hEGF; Thermo Fisher Scientific, cat. PHG0311), 10 ng/mL recombinant human fibroblast growth factor 10 (hGFG-10; PeproTech, cat. 100-26), 1 ng/mL recombinant human fibroblast growth factor 2 (hFGF-2; PeproTech, cat. 100-18B), and 1 µM prostaglandin E2 (PGE2; Tocris, cat. 2296). The 227483-062-R1-J1-PDC line was cultured in Panc media, containing all 6E components except hFGF-2, with the addition of 500 nM SB-431542 (Selleckchem, cat. S1067) and 10 nM gastrin (Tocris, cat. 3006). […]
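Note: spheroids exposed to compounds for 7 days before readout.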

## C#Cc1c(F)ccc2cc(O)cc(-c3ncc4c(N5CC6CCC(C5)N6)nc(OCC56CCCN5CC(F)C6)nc4c3F)c12 (configuration not stated) + CN1CCN(c2cc(C(=O)Nc3cc4cc(-c5cnn(C)c5)ccc4cn3)ccn2)CC1
Second compound 0.0316 µM
  IC50: 34.7 nM
Second compound 0.1 µM
  IC50: < 31.6 nM
Second compound 0.316 µM
  IC50: < 31.6 nM
Second compound 1 µM
  IC50: < 31.6 nM
Second compound 3.16 µM
  IC50: < 31.6 nM
Second compound 10 µM
  IC50: < 31.6 nM
Second compound 0.0316 µM, first compound 0.0316 µM
  viability, T/C: 51%
Second compound 0.0316 µM, first compound 0.1 µM
  viability, T/C: 40.5%
Second compound 0.0316 µM, first compound 0.316 µM
  viability, T/C: 29.7%
Second compound 0.0316 µM, first compound 1 µM
  viability, T/C: 30.5%
Second compound 0.0316 µM, first compound 3.16 µM
  viability, T/C: 26.4%
Second compound 0.0316 µM, first compound 10 µM
  viability, T/C: 21.7%
Second compound 0.1 µM, first compound 0.0316 µM
  viability, T/C: 42%
Second compound 0.1 µM, first compound 0.1 µM
  viability, T/C: 35.6%
Second compound 0.1 µM, first compound 0.316 µM
  viability, T/C: 29.6%
Second compound 0.1 µM, first compound 1 µM
  viability, T/C: 21.9%
Second compound 0.1 µM, first compound 3.16 µM
  viability, T/C: 22.5%
Second compound 0.1 µM, first compound 10 µM
  viability, T/C: 16.6%
Second compound 0.316 µM, first compound 0.0316 µM
  viability, T/C: 2.95%
Second compound 0.316 µM, first compound 0.1 µM
  viability, T/C: 4.54%
Second compound 0.316 µM, first compound 0.316 µM
  viability, T/C: 2.86%
Second compound 0.316 µM, first compound 1 µM
  viability, T/C: 2.52%
Second compound 0.316 µM, first compound 3.16 µM
  viability, T/C: 2.6%
Second compound 0.316 µM, first compound 10 µM
  viability, T/C: 2.24%
Second compound 1 µM, first compound 0.0316 µM
  viability, T/C: 0.11%
Second compound 1 µM, first compound 0.1 µM
  viability, T/C: 0.13%
Second compound 1 µM, first compound 0.316 µM
  viability, T/C: 0.46%
Second compound 1 µM, first compound 1 µM
  viability, T/C: 0.08%
Second compound 1 µM, first compound 3.16 µM
  viability, T/C: 0.12%
Second compound 1 µM, first compound 10 µM
  viability, T/C: 0.4%
Second compound 3.16 µM, first compound 0.0316 µM
  viability, T/C: 0.06%
Second compound 3.16 µM, first compound 0.1 µM
  viability, T/C: 0.9%
Second compound 3.16 µM, first compound 0.316 µM
  viability, T/C: 0.56%
Second compound 3.16 µM, first compound 1 µM
  viability, T/C: 0.07%
Second compound 3.16 µM, first compound 3.16 µM
  viability, T/C: 0.09%
Second compound 3.16 µM, first compound 10 µM
  viability, T/C: 1.64%
Second compound 10 µM, first compound 0.0316 µM
  viability, T/C: 0.11%
Second compound 10 µM, first compound 0.1 µM
  viability, T/C: 0.13%
Second compound 10 µM, first compound 0.316 µM
  viability, T/C: 0.73%
Second compound 10 µM, first compound 1 µM
  viability, T/C: 0.56%
Second compound 10 µM, first compound 3.16 µM
  viability, T/C: 0.92%
Second compound 10 µM, first compound 10 µM
  viability, T/C: 0.5%
